Reference: patent publication EP4763845A1, “CYANO AROMATIC RING DERIVATIVE AND PHARMACEUTICAL USE THEREOF” (Haisco Pharmaceutical Group Co., Ltd., priority 2023, dated 2025)
Where two headings read alike, the source gives them in different places.

Tests used:
[1] = Pharmacokinetic test in rats; type: in vivo, SD rats; settings: i.g. (5 mg/kg); for AUC(0-t): rat, po
Method: (§1) Experimental objective: In this experiment, a single dose of the test compound was administered to SD rats via intravenous administration and intragastric gavage, and the concentration of the test compound in plasma of the rats was measured to evaluate the pharmacokinetic profile of the test compound in the rats.
Experimental animals: Male SD rats, 200-220 g, 6 rats/compound, purchased from Chengdu Ddossy Experimental Animals Co., Ltd.
(§2) Experimental method: On the day of the experiment, 6 SD rats were randomly grouped according to their body weights. The animals were fasted with water available for 12 to 14 h one day before the administration, and were fed 4 h after the administration. Table 3 Administration information of pharmacokinetic test in rats
Sampling: Before and after the administration, 0.1 mL of blood was taken from the orbits under isoflurane anaesthesia, and placed in an EDTAK2 centrifuge tube. Centrifugation was carried out at 5000 rpm at 4°C for 10 min, and the plasma was collected.
The plasma collection time points for IV&PO groups were 0, 5 min, 15 min, 30 min, 1 h, 2 h, 4 h, 7 h, 24 h, and 48 h.
Before analysis and detection, all samples were stored at -60°C. The samples were analysed quantitatively by LC-MS/MS. Table 4 Pharmacokinetic parameters of compounds of the present invention in plasma of rats

VCaP cells = assay: VCaP cell proliferation inhibition experiment (CellTiter-Glo); type: cell-based; settings: Homo sapiens, 168 h
Method: After centrifugation and resuspension, viable cell counting was performed using a Vi-Cell XR cell counter. […] Then, 180 µl of the cell suspension was added per well to a 96-well cell culture plate at a cell density of 7,500 cells/well. At the time of seeding, T0 wells were also prepared. The following day, R1881 at a final concentration of 0.1 nM and compounds at various concentrations were added. The plate was placed back into the incubator and cultured for an additional 7 days. At the time of compound addition, the T0 plate was measured using the CellTiter-Glo (CTG) kit (Promega, Cat. No. G7572) and recorded as RLU0. Following incubation, 75 µl of pre-thawed and room temperature-equilibrated CellTiter-Glo solution was added to each well. […] The results were processed according to Equation (2). […] Growth% = (RLUcompound−RLU0)/(RLUcontrol−RLU0) × 100% [formula]

AR protein = target: T1, AR protein (Homo sapiens, UniProt P10275); assay: Detection of AR degradation in VCaP cells (automated western blot); type: cell-based; settings: degradation of AR protein in VCaP cells, 24 hours incubation; read-out: DC50
T1 construct: VCap is a human prostate cancer cell line purchased from ATCC; host or cells: VCaP human prostate cancer cells
T1 sequence (P10275 1-920): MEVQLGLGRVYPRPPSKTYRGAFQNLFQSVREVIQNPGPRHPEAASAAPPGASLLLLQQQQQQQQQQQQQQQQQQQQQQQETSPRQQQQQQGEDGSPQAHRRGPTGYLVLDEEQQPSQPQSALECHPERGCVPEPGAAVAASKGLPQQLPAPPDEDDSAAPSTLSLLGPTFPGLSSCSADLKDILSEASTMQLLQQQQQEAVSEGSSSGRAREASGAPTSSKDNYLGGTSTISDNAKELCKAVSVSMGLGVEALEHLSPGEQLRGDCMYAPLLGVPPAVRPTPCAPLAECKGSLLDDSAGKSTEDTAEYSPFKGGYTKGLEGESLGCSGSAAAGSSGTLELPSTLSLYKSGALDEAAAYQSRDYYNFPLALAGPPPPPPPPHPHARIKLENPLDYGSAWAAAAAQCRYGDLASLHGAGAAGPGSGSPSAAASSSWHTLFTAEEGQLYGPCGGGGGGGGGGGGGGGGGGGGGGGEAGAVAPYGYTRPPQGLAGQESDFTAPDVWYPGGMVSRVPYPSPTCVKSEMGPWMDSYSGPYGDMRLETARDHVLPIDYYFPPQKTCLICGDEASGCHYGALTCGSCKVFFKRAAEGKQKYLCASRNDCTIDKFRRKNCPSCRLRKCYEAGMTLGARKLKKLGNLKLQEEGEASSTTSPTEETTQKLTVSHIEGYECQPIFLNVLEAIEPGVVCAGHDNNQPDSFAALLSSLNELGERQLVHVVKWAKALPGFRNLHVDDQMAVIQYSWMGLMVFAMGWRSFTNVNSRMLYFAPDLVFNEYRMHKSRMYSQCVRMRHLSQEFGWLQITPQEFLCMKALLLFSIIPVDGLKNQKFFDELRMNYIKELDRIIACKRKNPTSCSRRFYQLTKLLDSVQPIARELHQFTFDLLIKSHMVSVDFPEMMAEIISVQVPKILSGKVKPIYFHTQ
Method: VCap is a human prostate cancer cell line purchased from ATCC and cultured under the following conditions: DMEM + 10% FBS + 1% penicillin-streptomycin solution. The cells were cultured in a 37°C, 5% CO2 incubator. The cells were seeded in a 6-well plate, with 5 × 10^5 cells/well. After seeding, compounds at various concentrations were added, and the plate was incubated for 24 hours in the 37°C, 5% CO2 incubator. Following incubation, the cells were harvested and RIPA lysis buffer (beyotime, Cat. P0013B) was added. The cells were lysed on ice for 15 minutes and centrifuged at 12,000 rpm at 4°C for 10 minutes. The supernatant protein samples were collected and the protein was quantified using the BCA kit (Beyotime, Cat. P0009). Then the protein was diluted to 0.25 mg/mL. The expressions of AR (CST, Cat.5153S) and the internal reference β-actin (CST, Cat. 3700S) were detected using a fully automated western blot quantitative analyser (Proteinsimple). Using the "Compass for SW" software, the relative peak area of AR was calculated when the internal reference area was 10,000. The proportion of AR relative to the solvent control group at various drug concentrations was calculated according to Equation (1), where ARtreat represents the relative peak area of the compound-treated group, and ARsolvent represents the relative peak area of the solvent control group. The processed data obtained from Equation (1) were analysed using GraphPad Prism 8.3.0 software, and the DC50 value was calculated using a four-parameter nonlinear regression model. The degradation rate at a specified concentration was determined as 100-AR%. AR% = ARtreat/ ARsolvent × 100% [formula]

[2] = Pharmacokinetic test in mice; type: in vivo, ICR mice; settings: i.g. (5 mg/kg); for AUC(0-t): mouse, plasma, po
Method: as §1, with “ICR mice” for “SD rats”, “mice” for “rats”, “mice.” for “rats.”
Experimental animals: Male ICR mice, 6 mice/compound, purchased from Chengdu Ddossy Experimental Animals Co., Ltd.
as §2, with “[…]” for “rats”, “6” for “3”
Sampling: Before and after the administration, 0.15 mL of blood was taken from the orbits under isoflurane anaesthesia, and placed in an EDTAK2 centrifuge tube. Centrifugation was carried out at 5000 rpm at 4°C for 10 min, and the plasma was collected.
The plasma collection time points for PO groups were 0, 5 min, 15 min, 30 min, 1 h, 2 h, 4 h, 7 h, 24 h, and 48 h.
The plasma collection time points for IV groups were 0, 5 min, 15 min, 30 min, 1 h, 2 h, 4 h, 7 h, 24 h, and 48 h.
Before analysis and detection, all samples were stored at -60°C. The samples were analysed quantitatively by LC-MS/MS. Table 7 Pharmacokinetic parameters of compounds of the present invention in plasma of mice

hERG potassium channel = target: T2, hERG potassium channel (Homo sapiens, UniProt Q12809); assay: hERG potassium ion channel test (manual patch-clamp, CHO cells); type: cell-based; settings: inhibitory activity against hERG potassium channel current, CHO cells, whole cell patch-clamp, read-out: IC50
T2 construct: expressed in transfected cells; host or cells: CHO cells stably expressing hERG
Description: Experimental platform: Electrophysiological manual patch-clamp system
Cell line: Chinese hamster ovary (CHO) cell lines stably expressing hERG potassium ion channel
Experimental method: In Chinese Hamster Ovary (CHO) cells stably expressing hERG potassium channel, whole cell patch-clamp technique was used to record hERG potassium channel current at room temperature. The glass microelectrode was made of a glass electrode blank (BF150-86-10, Sutter) by a puller. The tip resistance after filling the liquid in the electrode was about 2-5 MΩ. The glass microelectrode can be connected to the patch-clamp amplifier by inserting the glass microelectrode into an amplifier probe. The clamping voltage and data recording were controlled and recorded by the pClamp 10 software through a computer. The sampling frequency was 10 kHz, and the filtering frequency was 2 kHz. After the whole cell records were obtained, the cells were clamped at -80 mV, and the step voltage that induced the hERG potassium current (I hERG) was depolarised from -80 mV to +20 mV for 2 s, then repolarised to -50 mV, and returned to -80 mV after 1 s. This voltage stimulation was given every 10 s, and the administration process was started after the hERG potassium current was confirmed to be stable (at least 1 minute). The compound was administered for at least 1 minute at each test concentration, and at least 2 cells (n ≥ 2) were tested at each concentration.
Data processing: Data analysis processing was carried out by using pClamp 10, GraphPad Prism 5 and Excel software.
Compound IC50 was calculated using GraphPad Prism 5 software by fitting according to the following equation: Y = Bottom + (Top−Bottom)/(1+10^(∧)((LogIC50−X)*HillSlope)) [formula] where X represents the Log value of the tested concentration of the test sample, Y represents the inhibition percentage at the corresponding concentration, and Bottom and Top represent the minimum and maximum inhibition percentage, respectively.

[3] = vehicle 5% DMSO+5% Solutol+90% (20% SBE-β-CD)
[4] = Vehicle 3: 5% DMSO+5% Solutol+90% (20% SBE-β-CD)
[5] = Vehicle 1: 5% DMSO+5% Solutol+30% PEG400+60% (20% SBE-CD)

T2 sequence (Q12809 whole entry): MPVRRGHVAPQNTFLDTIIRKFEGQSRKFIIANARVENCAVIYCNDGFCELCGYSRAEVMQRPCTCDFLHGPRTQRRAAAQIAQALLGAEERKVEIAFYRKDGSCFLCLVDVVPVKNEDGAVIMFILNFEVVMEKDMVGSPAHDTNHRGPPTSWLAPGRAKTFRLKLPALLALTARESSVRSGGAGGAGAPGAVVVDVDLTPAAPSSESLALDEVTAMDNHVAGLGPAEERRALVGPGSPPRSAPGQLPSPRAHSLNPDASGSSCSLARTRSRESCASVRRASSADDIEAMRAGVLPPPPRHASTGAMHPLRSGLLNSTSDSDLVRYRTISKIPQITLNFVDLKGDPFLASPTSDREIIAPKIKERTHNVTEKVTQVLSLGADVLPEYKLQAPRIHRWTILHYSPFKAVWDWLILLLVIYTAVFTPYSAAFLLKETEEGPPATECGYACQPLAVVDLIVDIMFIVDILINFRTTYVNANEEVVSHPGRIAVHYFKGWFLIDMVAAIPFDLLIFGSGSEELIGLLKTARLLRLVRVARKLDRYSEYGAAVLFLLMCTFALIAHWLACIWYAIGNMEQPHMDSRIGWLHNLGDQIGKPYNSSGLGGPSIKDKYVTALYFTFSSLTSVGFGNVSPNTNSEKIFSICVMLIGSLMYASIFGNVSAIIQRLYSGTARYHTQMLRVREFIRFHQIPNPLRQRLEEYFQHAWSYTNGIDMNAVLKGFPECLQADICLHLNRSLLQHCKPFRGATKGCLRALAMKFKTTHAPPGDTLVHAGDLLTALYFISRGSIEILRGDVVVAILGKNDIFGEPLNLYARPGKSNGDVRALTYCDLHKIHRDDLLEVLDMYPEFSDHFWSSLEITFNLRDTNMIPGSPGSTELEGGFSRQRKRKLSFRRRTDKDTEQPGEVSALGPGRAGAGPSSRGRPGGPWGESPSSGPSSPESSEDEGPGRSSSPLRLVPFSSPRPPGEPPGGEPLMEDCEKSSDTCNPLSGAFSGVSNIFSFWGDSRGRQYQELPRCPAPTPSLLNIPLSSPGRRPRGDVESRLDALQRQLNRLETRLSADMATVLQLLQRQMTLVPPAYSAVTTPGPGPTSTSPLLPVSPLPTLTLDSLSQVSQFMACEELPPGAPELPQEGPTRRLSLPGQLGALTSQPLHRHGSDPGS

COc1cc(O[C@H]2C(C)(C)[C@H](NC(=O)c3ccc(N4CCC(CN5CCN6c7cc(F)c(C8CCC(=O)NC8=O)cc7CC[C@H]6C5)CC4)cc3)C2(C)C)ccc1C#N (some centres unmarked) [Compound 1]
F [1, 3]: 46.5±8.6%
AUC(0-t) ([1]; in vivo, vehicle 5% DMSO+5% Solutol+90% (20% SBE-β-CD)): 5490 ± 1010 ng·h/mL
GI50 (VCaP cells): < 300 nM

CC1(C)[C@H](NC(=O)c2ccc(N3CCC(CN4CCN5c6cc(F)c(N7CCC(=O)NC7=O)cc6CC[C@@H]5C4)CC3)cc2)C(C)(C)[C@H]1Oc1ccc(C#N)c2ncccc12 [Compound 32]
DC50 (AR protein): < 100 nM
AUC(0-t) [2, 4]: 30900 ± 6080 ng·h/mL

COc1cc(O[C@H]2C(C)(C)[C@H](NC(=O)c3ccc(N4CCC5(CC4)CC(N4CCN6c7cc(F)c(N8CCC(=O)NC8=O)cc7CC[C@@H]6C4)C5)cc3)C2(C)C)ccc1C#N [Compound 79]
AUC(0-t) ([1]; male, SD, plasma, vehicle 5% DMSO+5% Solutol+10% PEG400+80% (20% SBE-β-CD)): 6970 ng·h/mL
IC50 (hERG potassium channel; human, CHO cells stably expressing hERG potassium channel): > 40 µM
DC50 (AR protein): < 100 nM
GI50 (VCaP cells): < 300 nM

COc1cc(O[C@H]2C(C)(C)[C@H](NC(=O)c3ccc(N4CCC(CN5CCN6c7cc(F)c(C8CCC(=O)NC8=O)cc7CC[C@@H]6C5)CC4)cc3)C2(C)C)ccc1C#N (some centres unmarked) [Compound 2]
F ([1]; vehicle 5% DMSO+ 5% Solutol+30% PEG-400+60% (20% SBE-β-CD)): 61.4+9.1%
AUC(0-t) ([1]; in vivo, vehicle 5% DMSO+ 5% Solutol+30% PEG-400+60% (20% SBE-β-CD)): 6010 ± 889 ng·h/mL

COc1cc(O[C@H]2C(C)(C)[C@H](NC(=O)c3ccc(N4CCC(CN5CCN(c6ccc(C(=O)N[C@H]7CCC(=O)NC7=O)c(F)c6)CC5)CC4)cc3)C2(C)C)ccc1C#N [Control compound, reference compound]
F [1, 3]: 26.9±3.2%
AUC(0-t) ([1]; male, SD, plasma, vehicle 5% DMSO+5% Solutol+90% (20% SBE-β-CD)): 2870 ± 338 ng·h/mL
F [2, 5]: 63.4±3.3%
AUC(0-t) ([2]; male, ICR, Vehicle 1: 5% DMSO+5% Solutol+30% PEG400+60% (20% SBE-CD)): 20700 ± 1080 ng·h/mL
GI50 (VCaP cells): > 2000 nM

COc1cc(O[C@H]2C(C)(C)[C@H](NC(=O)c3ccc(N4CCC(CN5CCN6c7cc(F)c(N8CCC(=O)NC8=O)cc7CC[C@@H]6C5)CC4)nc3)C2(C)C)ccc1C#N [Trifluoroacetate of compound 66]
AUC(0-t) [2, 4]: 30400 ± 9310 ng·h/mL
GI50 (VCaP cells): < 300 nM

CC1(C)[C@H](NC(=O)c2ccc(N3CCC(CN4CCN5c6cc(F)c(C7CCC(=O)NC7=O)cc6CC[C@@H]5C4)CC3)cc2)C(C)(C)[C@H]1Oc1ccc(C#N)c2ncccc12 (some centres unmarked) [Compound 30]
IC50 (hERG potassium channel; chinese hamster): > 40 µM
DC50 (AR protein): < 100 nM
AUC(0-t) [2, 4]: 33000 ± 9330 ng·h/mL

COc1cc(O[C@H]2C(C)(C)[C@H](NC(=O)c3ccc(N4CCC(CN5CCN6c7cc(F)c(C(=O)N[C@H]8CCC(=O)NC8=O)cc7CC[C@H]6C5)CC4)cc3)C2(C)C)ccc1C#N [Compound 13]
DC50 (AR protein): < 100 nM
AUC(0-t) [2, 5]: 33500 ± 1680 ng·h/mL
